Source: patent US7718687B2, “Prodrugs of mitotic kinesin inhibitors” (Merck Sharp & Dohme Corp.,, priority 2004, dated 2010)

Biological target: T1, human KSP motor domain (KSP(367H)) (Homo sapiens, UniProt P52732)
T1 construct: were used to amplify the motor domain and the neck linker region; made in house; host or cells: E. coli BL21 (DE3), vector pRSETa
T1 sequence (P52732 18-359 limits assumed): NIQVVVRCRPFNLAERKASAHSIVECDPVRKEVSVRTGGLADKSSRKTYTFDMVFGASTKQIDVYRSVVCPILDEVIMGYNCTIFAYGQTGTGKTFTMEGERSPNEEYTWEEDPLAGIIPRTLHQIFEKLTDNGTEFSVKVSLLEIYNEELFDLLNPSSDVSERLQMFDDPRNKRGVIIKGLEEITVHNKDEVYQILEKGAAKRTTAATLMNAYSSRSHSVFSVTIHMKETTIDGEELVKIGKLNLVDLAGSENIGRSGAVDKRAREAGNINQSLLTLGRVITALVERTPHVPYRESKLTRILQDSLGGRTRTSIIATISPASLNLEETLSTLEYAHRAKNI
Assay: Kinesin ATPase In Vitro Assay
Format: biochemical
Conditions: enantiomers of 1-5 resolved on Chiralpak AD; assay not stated
Description: I. Kinesin ATPase In Vitro Assay
Cloning and Expression of Human Poly-Histidine Tagged KSP Motor Domain (KSP(367H))
Plasmids for the expression of the human KSP motor domain construct were cloned by PCR using a pBluescript full length human KSP construct (Blangy et al., Cell, vol. 83, pp 1159-1169, 1995) as a template. The N-terminal primer 5′-[…] (SEQ.ID.NO.: 1) and the C-terminal primer 5′-[…] […] (SEQ.ID.NO.: 2) were used to amplify the motor domain and the neck linker region. The PCR products were digested with AseI and XhoI, ligated into the NdeI/XhoI digestion product of pRSETa (Invitrogen) and transformed into E. coli BL21 (DE3).
Cells were grown at 37° C. to an OD600 of 0.5. […]
The kinesin motor domain is incubated with microtubules, 1 mM ATP (1:1 MgCl2: Na-ATP), and compound at 23° C. in buffer containing 80 mM K-HEPES (pH 7.0), 1 mM EGTA, 1 mM DTT, 1 mM MgCl2, and 50 mM KCl. […] Free phosphate from the ATP hydrolysis reaction is measured via a quinaldine red/ammonium molybdate assay by adding a […] of quench C (e.g., to a mixture of 40 μl reaction volume+40 μl stop buffer is then added 120 μl quench C). […] Quench C is a 2:1 ratio of quench A:quench B The reaction is incubated for 5-10 minutes at 23° C., and the absorbance of the phospho-molybdate complex is measured at 540 nm.

activity of resolved enantiomer (active / inactive): active
SMILES: CC(=O)N1N=C(c2cc(F)ccc2F)C[C@@]1(CCCO)c1ccccc1 (single isomer, unassigned; isomer 3) [(S) isomer]
